Test results: BindingDB's records for doi:10.1016/j.bmcl.2005.06.069 (National Health Research Institutes, 2005)

Target: Echovirus 9
Assay: Inhibitory activity against Echovirus 9 using plaque reduction assay

IC50: > 25 µM
SMILES: C[C@H](CCOc1ccc(-c2ccc(Cl)cc2)cc1)CCN1CCN(c2ccncc2)C1=O [1-[(S)-5-(4'-Chloro-biphenyl-4-yloxy)-3-methyl-pentyl]-3-pyridin-4-yl-imidazolidin-2-one]
